How the values were obtained:
[1] = system: acpP::gfp reporter transcript; assay: In vitro translation of acpP::gfp reporter (PURExpress) with western blot; format: biochemical, Salmonella; set-up: key to Inhibition of translation in vitro: +++: Effect strength is represented by additional (+) signs.; ++: Effect strength is represented by additional (+) signs.; Effect strength is represented by additional (+) signs; details: unconjugated ASO; for Inhibition of in vitro translation of acpP::gfp (in words): western blot of AcpP(1–17)::GFP; for Inhibition of translation in vitro: ASO:RNA 0.6:1 to 5:1, 100 nM RNA, 2 h 37°C, summary grade
Method: As a next step, we used a cell-free in vitro translation system ([Popella et al. 2022]) to investigate whether ASO binding to mRNA leads to a block in protein synthesis. As a template, we used the acpP sequence spanning −40 to +51 relative to the AUG start codon fused to a gfp reporter gene (acpP::gfp). This construct was in vitro transcribed, preincubated with different ASOs at different ratios and subsequently translated in vitro. Water was used as a negative control.
For the generation of target RNA::gfp fusion constructs, we used a previously established protocol ([Popella et al. 2022]) and the oligonucleotides JVO-19760/JVO-19761 (Supplemental Table S1) to amplify the genomic region spanning nucleotides –40 to +51 relative to the translational start codon of acpP. The sense oligonucleotide was fused to a T7 promoter sequence for subsequent transcription of the final fusion construct in vitro. The antisense oligonucleotide contained a 30 nt overlapping region with gfp for subsequent fusion PCR with full-length gfp (pXG-10; JVO-19762/JVO-19763) (Supplemental Table S1). The PCR products were purified with NucleoSpin Gel and PCR Clean-up (Macherey-Nagel) according to the manufacturer's instructions, and DNA concentration was quantified with a NanoDrop spectrophotometer (A260 nm).
PCR products were used for T7 RNA polymerase-driven transcription in vitro using the MEGAscript T7 kit (Ambion/Thermo Scientific), according to the manufacturer's instructions and analogous to our previous publication ([Popella et al. 2022]). The concentration of the RNA solution was quantified with Qubit (Fisher Scientific), and the expected product size and RNA integrity were verified on a 6% PAA, 7 M urea gel.
For in vitro translation of target RNA::gfp fusion constructs, the PURExpress In Vitro Protein Synthesis Kit (New England Biolabs, E6800L) was used as described previously ([Popella et al. 2022]). Briefly, the final volume of each in vitro translation reaction was set to 10 µL. One microliter of different concentrations of ASOs ranging from 10 to 0.625 µM was added to 1 µL of in vitro transcribed heat-denatured RNA (1 µM) to adjust the final RNA concentration to 100 nM. The mixtures were preincubated at 37°C for 5 min. Then 4 µL of Solution A and 3 µL of Solution B were added to the preannealed mixtures. After 2 h at 37°C, protein samples were denatured in 1× reducing protein loading buffer (62.6 mM Tris–HCl pH 6.8, 2% SDS, 0.1 mg/mL bromphenol blue, 15.4 mg/mL DTT, 10% glycerol) at 95°C for 5 min.
To visualize in vitro translated proteins, samples were separated on SDS-PAA (12% PAA) gels, with subsequent semi-dry western blot transfer on nitrocellulose membranes. Membranes were blocked with 10% skim milk (in 1× TBS-T) for 1 h and probed with anti-GFP antibody (1:1000; Sigma-Aldrich) in 5% skim milk (in 1× TBS-T) overnight at 4°C. After washing in 1× TBS-T and incubation with an HRP-conjugated secondary antibody (1:5000; Thermo Scientific) in 1× TBS-T, the membrane was incubated with a developing solution kit (Amersham ECL Select Western Blotting Detection Reagent), and protein levels were detected using an ImageQuant LAS 500 (GE Healthcare Life Sciences). Images were processed and band intensities quantified using ImageJ. Protein bands were normalized to the water control.

[2] = system: Cy5 5′-labeled acpP target RNA (40 nt, −20 to +20); assay: Microscale thermophoresis (MST) binding affinity; set-up: species or system Salmonella; details: for EC50 of binding to target mRNA by MST (in words): unconjugated ASO; for EC50: read-out: mRNA-binding affinity (EC50)
Text: To further quantify the binding affinities of the ASOs to the target mRNA, we used MST, a sensitive technique that measures a temperature-induced change in the fluorescence of a substrate as a function of the concentration of a nonfluorescent ligand ([Moon et al. 2018]; [Zimmer et al. 2021]). MST allowed us to quantify target affinity by calculating EC50 values, the half maximal effective concentration of binding to target mRNA (Table 1; Supplemental Fig. S4). […] Both are known to adopt C3′-endo ribose pucker conformation, which enhances their binding affinity to target mRNA ([Julien et al. 2008]; [Pallan et al. 2012]).
For each binding experiment, Cy5 5′-labeled RNA (as described above) was diluted to 10 nM in buffer A (50 mM Tris-HCl pH 7.6, 250 mM KCl, 5 mM MgCl2, 1 mM DTT, 5% glycerol supplemented with 0.05% Tween 20). A series of 16 tubes with different ASO dilutions (500–0.015 nM) were prepared in buffer A. For measurements, each ASO dilution was mixed with one volume of labeled RNA, which led to a final concentration of 5 nM labeled RNA and 250–0.007 nM of ASOs. The reaction was mixed by pipetting and incubated for 30 min at RT in the dark. Capillary forces were used to load the samples into Monolith NT.115 Premium Capillaries; measurements were performed using a Monolith Pico instrument (NanoTemper Technologies Gmbh) at an ambient temperature of 25°C. Instrument parameters were adjusted to 5% LED power, medium MST power, and MST on-time of 2.5 s. An initial fluorescence scan was performed across the capillaries to determine sample quality, which was followed by 16 thermophoresis measurements. […] Data of two independent measurements were analyzed for the ΔFnorm value determined by the MO Affinity Analysis software (NanoTemper Technologies Gmbh). The fitting for EC50 values was done using the Hill equation within the MO Affinity Analysis software. Data are presented as the mean EC50 values of two independent experiments.

[3] = unconjugated ASO 250-0.007 nM, 5 nM Cy5 RNA, 50 mM Tris-HCl pH 7.6, 250 mM KCl, 5 mM MgCl2, 30 min RT, 25°C, Hill fit, mean ± SD, two independent experiments

Substance	Inhibition of in vitro translation of acpP::gfp (in words) [1]	mRNA-binding affinity (EC50) [2, 3]	Inhibition of translation in vitro [1]	EC50 of binding to target mRNA by MST (in words) [2]	EC50 [2, 3] [nM]
DNA-PTO: phosphorothioate-modified DNA 10mer ASO, sequence CTCATACTCT, targeting acpP −5 to +5 (DNA, all phosphorothioate, methylation of C not given here)	did not inhibit protein synthesis	Could not be determined			
LNA: 2′–4′-locked RNA 10mer ASO, sequence CTCATACTCT, targeting acpP −5 to +5 (all LNA, backbone and methylation of C not given here)	substantially blocking in vitro translation of acpP::gfp at 1.25× molar excess		+++	upper picomolar range	0.3 ± 0.1
PMO: phosphorodiamidate morpholino 10mer ASO, sequence CTCATACTCT, targeting acpP −5 to +5 (all phosphorodiamidate morpholino (PMO))	less pronounced		++	lower-mid nanomolar range	5.9 ± 2.7
PNA: peptide nucleic acid 10mer ASO, sequence CTCATACTCT, targeting acpP −5 to +5 (all peptide nucleic acid (PNA))	substantially blocking in vitro translation of acpP::gfp at 1.25× molar excess		+++	upper picomolar range	0.4 ± 0.4
RNA-F: 2′-fluorinated RNA 10mer ASO, sequence CTCATACTCT, targeting acpP −5 to +5 (all 2'-fluoro, backbone and T or U not given here)	less pronounced		++	lower-mid nanomolar range	72.8 ± 36.2
RNA-MOE: 2′-methoxyethylated RNA 10mer ASO, sequence CTCATACTCT, targeting acpP −5 to +5 (all 2'-MOE, backbone and methylation of C not given here)	substantially blocking in vitro translation of acpP::gfp at 1.25× molar excess		+++	upper picomolar range	0.3 ± 0.2
RNA-OMe: 2′-methylated RNA 10mer ASO, sequence CTCATACTCT, targeting acpP −5 to +5 (all 2'-O-methyl, backbone and T or U not given here)	less pronounced			lower-mid nanomolar range	4 ± 0.2

— paper PMC11098465, “A comparative analysis of peptide-delivered antisense antibiotics using diverse nucleotide mimics” (RNA, 2024)
